Assay: molar heat capacity at constant pressure; xn = mol fraction of the nth substance listed
Settings: Liquid, Flow calorimetry

Cc1ccc(C)c(C)c1 [1,2,4-trimethylbenzene] + CCC(C)O
molar heat capacity at constant pressure [J/K/mol]
Settings | x2 = 0 | x2 = 0.1001 | x2 = 0.3 | x2 = 0.5298 | x2 = 0.6001 | x2 = 0.7001 | x2 = 0.7997 | x2 = 0.9001
293.15 K, 100 kPa | 216.2 | 219.6 | 221.6 | 223.7 | 216 | 213 | 206.9 | 200.5
293.15 K, 5000 kPa | 215 | 218.1 | 220.8 | 222.1 | 215.3 | 211.7 | 205.2 | 198.5
293.15 K, 10000 kPa | 213.3 | 217 | 219.6 | 220.3 | 213.9 | 210.4 | 203.7 | 196.8
293.15 K, 15000 kPa | 212.5 | 216.2 | 219 | 218.9 | 213.2 | 208.5 | 201.9 | 195.5
293.15 K, 20000 kPa | 210.8 | 215.2 | 218.3 | 217.6 | 211.7 | 206.9 | 200.7 | 194.6
293.15 K, 25000 kPa | 209.8 | 214.6 | 217.3 | 215.9 | 210.5 | 205.5 | 199.7 | 193.3
313.15 K, 100 kPa | 222.5 | 231.1 | 235.8 | 234.2 | 233.8 | 232.1 | 226.9 | 224.2
313.15 K, 5000 kPa | 221.2 | 230.3 | 233.7 | 232.8 | 232.6 | 230 | 224.8 | 221.1
313.15 K, 10000 kPa | 219.6 | 229.5 | 232.6 | 231.9 | 230.1 | 227.4 | 222.4 | 218.9
313.15 K, 15000 kPa | 218.5 | 228.8 | 231.1 | 230.9 | 229 | 225.3 | 220.6 | 217.3
313.15 K, 20000 kPa | 217.7 | 227.7 | 229.9 | 229.6 | 227.2 | 223.8 | 219.3 | 216
313.15 K, 25000 kPa | 217.1 | 226.4 | 229.5 | 228.2 | 225.6 | 222.7 | 218.1 | 214.1

Cc1ccc(C)c(C)c1 [1,2,4-trimethylbenzene] + CCCCO
molar heat capacity at constant pressure [J/K/mol]
Settings | x2 = 0 | x2 = 0.1002 | x2 = 0.2327 | x2 = 0.3969 | x2 = 0.53 | x2 = 0.637 | x2 = 0.7176 | x2 = 0.7975 | x2 = 0.8594 | x2 = 0.9131
293.15 K, 100 kPa | 216.2 | 220 | 219.5 | 214 | 209.9 | 203.6 | 197 | 192.5 | 186.5 | 181.9
293.15 K, 5000 kPa | 215 | 219 | 219 | 213.4 | 208.8 | 203.3 | 196 | 191.8 | 186.3 | 181.4
293.15 K, 10000 kPa | 213.3 | 217.3 | 218.1 | 212.8 | 207.7 | 202.4 | 194.9 | 190.8 | 185.1 | 181.1
293.15 K, 15000 kPa | 212.5 | 216 | 217.4 | 212.1 | 206.3 | 202 | 194.2 | 190.2 | 184.1 | 180.7
293.15 K, 20000 kPa | 210.8 | 215.4 | 216.9 | 211.3 | 205.9 | 201.1 | 193.3 | 189.6 | 183.4 | 180.3
293.15 K, 25000 kPa | 209.8 | 214.5 | 216.3 | 210.3 | 204.7 | 199.9 | 192 | 188.6 | 182.4 | 180
313.15 K, 100 kPa | 222.5 | 230.5 | 231.1 | 230 | 224.9 | 220.4 | 214.4 | 210.3 | 204.5 | 200.7
313.15 K, 5000 kPa | 221.2 | 229.4 | 230.1 | 228.9 | 223 | 218.9 | 212.6 | 209.1 | 203.7 | 199.4
313.15 K, 10000 kPa | 219.6 | 228.5 | 229.8 | 227.4 | 222.3 | 217.6 | 211.5 | 208.6 | 203.3 | 198.8
313.15 K, 15000 kPa | 218.5 | 227.3 | 228.5 | 226.4 | 220.5 | 216.5 | 210.2 | 207.8 | 202.6 | 197.7
313.15 K, 20000 kPa | 217.7 | 225.8 | 227.3 | 225.4 | 219.2 | 215.4 | 209.3 | 206.4 | 202 | 196.6
313.15 K, 25000 kPa | 217.1 | 225.5 | 227 | 224.3 | 218.4 | 213.6 | 208.1 | 206.1 | 201.3 | 196

CCC(C)O (stereo not drawn) [butan-2-ol] + Cc1ccc(C)c(C)c1
molar heat capacity at constant pressure [J/K/mol], x1 = 1
Settings | 100 kPa | 5000 kPa | 10000 kPa | 15000 kPa | 20000 kPa | 25000 kPa
293.15 K | 189.1 | 187.1 | 185.5 | 185.2 | 183.6 | 182.7
313.15 K | 214.9 | 213.1 | 211.1 | 209.4 | 207.2 | 204.9

Reference: the NIST ThermoML archive (doi:10.1016/j.jct.2017.03.006)
